# Legend:
# Format in all cases: functional
# [1] = system: Staphylococcus aureus; test: Antibacterial activity against methicillin-resistant Staphylococcus aureus assessed as bacterial growth inhibition incubated for 24 hrs by CLSI based two serial dilution assay
# [2] = system: Enterococcus faecalis; test: Antibacterial activity against Enterococcus faecalis assessed as bacterial growth inhibition incubated for 24 hrs by CLSI based two serial dilution assay
# [3] = system: Staphylococcus aureus; test: Antibacterial activity against Staphylococcus aureus assessed as bacterial growth inhibition incubated for 24 hrs by CLSI based two serial dilution assay
# [4] = system: Staphylococcus aureus; test: Antibacterial activity against Staphylococcus aureus 25923 assessed as bacterial growth inhibition incubated for 24 hrs by CLSI based two serial dilution assay
# [5] = system: Staphylococcus aureus; test: Antibacterial activity against Staphylococcus aureus 29213 assessed as bacterial growth inhibition incubated for 24 hrs by CLSI based two serial dilution assay
# [6] = system: Klebsiella pneumoniae; test: Antibacterial activity against Klebsiella pneumoniae assessed as bacterial growth inhibition incubated for 24 hrs by CLSI based two serial dilution assay
# [7] = system: Escherichia coli; test: Antibacterial activity against Escherichia coli assessed as bacterial growth inhibition incubated for 24 hrs by CLSI based two serial dilution assay
# [8] = system: Escherichia coli; test: Antibacterial activity against Escherichia coli 25922 assessed as bacterial growth inhibition incubated for 24 hrs by CLSI based two serial dilution assay
# [9] = system: Pseudomonas aeruginosa; test: Antibacterial activity against Pseudomonas aeruginosa assessed as bacterial growth inhibition incubated for 24 hrs by CLSI based two serial dilution assay
# [10] = system: Pseudomonas aeruginosa; test: Antibacterial activity against Pseudomonas aeruginosa ATCC 27853 assessed as bacterial growth inhibition incubated for 24 hrs by CLSI based two serial dilution assay
# [11] = system: Acinetobacter baumannii; test: Antibacterial activity against Acinetobacter baumannii assessed as bacterial growth inhibition incubated for 24 hrs by CLSI based two serial dilution assay
# [12] = system: Candida albicans; test: Antifungal activity against Candida albicans assessed as inhibition of fungal growth incubated for 24 hrs by CLSI based two serial dilution assay
# [13] = system: Candida albicans; test: Antifungal activity against Candida albicans ATCC 90023 assessed as inhibition of fungal growth incubated for 24 hrs by CLSI based two serial dilution assay
# [14] = system: Candida tropicalis; test: Antifungal activity against Candida tropicalis assessed as inhibition of fungal growth incubated for 24 hrs by CLSI based two serial dilution assay
# [15] = system: Candida parapsilosis; test: Antifungal activity against Candida parapsilosis ATCC 22019 assessed as inhibition of fungal growth incubated for 24 hrs by CLSI based two serial dilution assay; conditions: Lodderomyces parapsilosis
# [16] = system: Aspergillus fumigatus; test: Antifungal activity against Aspergillus fumigatus assessed as inhibition of fungal growth incubated for 24 hrs by CLSI based two serial dilution assay
SMILES,MIC [1],MIC [2],MIC [3],MIC [4],MIC [5],MIC [6],MIC [7],MIC [8],MIC [9],MIC [10],MIC [11],MIC [12],MIC [13],MIC [14],MIC [15],MIC [16]
CCCCN1C(=O)/C(=N\Nc2nccs2)c2ccc(Cl)cc21,0.5 µM,2 µM,1 µM,0.5 µM,4 µM,0.5 µM,1 µM,4 µM,0.5 µM,4 µM,0.5 µM,0.5 µM,2 µM,1 µM,0.5 µM,1 µM
C=CCN1C(=O)/C(=N\Nc2nccs2)c2ccccc21,512 µM,64 µM,64 µM,128 µM,128 µM,256 µM,64 µM,512 µM,512 µM,16 µM,512 µM,256 µM,512 µM,32 µM,128 µM,4 µM
CCN1C(=O)/C(=N\Nc2nccs2)c2ccccc21,32 µM,32 µM,64 µM,64 µM,16 µM,64 µM,32 µM,64 µM,2 µM,512 µM,512 µM,64 µM,128 µM,64 µM,64 µM,32 µM
CCCCN1C(=O)/C(=N\Nc2nccs2)c2cc(Br)cc(Br)c21,1 µM,0.5 µM,16 µM,0.5 µM,16 µM,0.5 µM,1 µM,1 µM,1 µM,512 µM,512 µM,0.5 µM,1 µM,1 µM,128 µM,512 µM
CCCCN1C(=O)/C(=N\Nc2nccs2)c2c(Cl)cc(Cl)cc21,1 µM,4 µM,2 µM,1 µM,2 µM,1 µM,32 µM,1 µM,2 µM,512 µM,512 µM,0.5 µM,2 µM,1 µM,256 µM,128 µM
CCCCN1C(=O)/C(=N\Nc2nc(C)cs2)c2ccccc21,2 µM,16 µM,32 µM,8 µM,32 µM,4 µM,16 µM,4 µM,1 µM,512 µM,4 µM,256 µM,1 µM,4 µM,256 µM,64 µM
CCCCN1C(=O)/C(=N\Nc2nccs2)c2cc(C)ccc21,4 µM,32 µM,4 µM,8 µM,2 µM,2 µM,4 µM,4 µM,16 µM,32 µM,2 µM,4 µM,4 µM,2 µM,1 µM,2 µM
C=CC1=C(C(=O)O)N2C(=O)[C@@H](NC(=O)/C(=N\O)c3csc(N)n3)[C@H]2SC1 [CEFDINIR],1 µM,2 µM,1 µM,0.5 µM,0.5 µM,0.5 µM,1 µM,2 µM,0.5 µM,1 µM,2 µM,,,,,
O=C(N[C@H](CO)[C@H](O)c1ccc([N+](=O)[O-])cc1)C(Cl)Cl [CHLORAMPHENICOL],16 µM,8 µM,8 µM,8 µM,4 µM,8 µM,32 µM,16 µM,32 µM,8 µM,16 µM,,,,,

# From ChEMBL document CHEMBL5370535, “Thiazolyl hydrazineylidenyl indolones as unique potential multitargeting broad-spectrum antimicrobial agents” (Eur J Med Chem, 2023)
